Test results as given in publication PMC7026418, “The kinase polypharmacology landscape of clinical PARP inhibitors” (Scientific Reports, 2020).
Read-outs that look alike come from different tables or passages of the source. Each block holds one compound with its values, some of them ahead of it.

Assays:
Test in all cases: biochemical
Set-up in all cases: DiscoveRx KINOMEscan active site-directed competition binding; percent of control kinase bound to immobilised ligand
DRAK2 = biological target: T1, DRAK2 (Homo sapiens, UniProt O94768)
T1 construct: gene STK17B
T1 sequence (O94768 1-372): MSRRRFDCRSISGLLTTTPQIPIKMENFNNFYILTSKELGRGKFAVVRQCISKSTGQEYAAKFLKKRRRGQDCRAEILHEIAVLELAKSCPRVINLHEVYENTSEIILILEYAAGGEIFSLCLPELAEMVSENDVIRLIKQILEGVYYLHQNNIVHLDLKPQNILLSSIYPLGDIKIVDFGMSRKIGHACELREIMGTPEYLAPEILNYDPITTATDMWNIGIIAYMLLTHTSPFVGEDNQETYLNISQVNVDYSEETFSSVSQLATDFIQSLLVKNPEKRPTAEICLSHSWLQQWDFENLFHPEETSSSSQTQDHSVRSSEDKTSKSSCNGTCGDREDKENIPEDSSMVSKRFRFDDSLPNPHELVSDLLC

FGR = FGR (Homo sapiens, UniProt P09769)
PRKD2 = biological target: T2, PRKD2 (Homo sapiens, UniProt Q9BZL6)
T2 sequence (Q9BZL6 1-878): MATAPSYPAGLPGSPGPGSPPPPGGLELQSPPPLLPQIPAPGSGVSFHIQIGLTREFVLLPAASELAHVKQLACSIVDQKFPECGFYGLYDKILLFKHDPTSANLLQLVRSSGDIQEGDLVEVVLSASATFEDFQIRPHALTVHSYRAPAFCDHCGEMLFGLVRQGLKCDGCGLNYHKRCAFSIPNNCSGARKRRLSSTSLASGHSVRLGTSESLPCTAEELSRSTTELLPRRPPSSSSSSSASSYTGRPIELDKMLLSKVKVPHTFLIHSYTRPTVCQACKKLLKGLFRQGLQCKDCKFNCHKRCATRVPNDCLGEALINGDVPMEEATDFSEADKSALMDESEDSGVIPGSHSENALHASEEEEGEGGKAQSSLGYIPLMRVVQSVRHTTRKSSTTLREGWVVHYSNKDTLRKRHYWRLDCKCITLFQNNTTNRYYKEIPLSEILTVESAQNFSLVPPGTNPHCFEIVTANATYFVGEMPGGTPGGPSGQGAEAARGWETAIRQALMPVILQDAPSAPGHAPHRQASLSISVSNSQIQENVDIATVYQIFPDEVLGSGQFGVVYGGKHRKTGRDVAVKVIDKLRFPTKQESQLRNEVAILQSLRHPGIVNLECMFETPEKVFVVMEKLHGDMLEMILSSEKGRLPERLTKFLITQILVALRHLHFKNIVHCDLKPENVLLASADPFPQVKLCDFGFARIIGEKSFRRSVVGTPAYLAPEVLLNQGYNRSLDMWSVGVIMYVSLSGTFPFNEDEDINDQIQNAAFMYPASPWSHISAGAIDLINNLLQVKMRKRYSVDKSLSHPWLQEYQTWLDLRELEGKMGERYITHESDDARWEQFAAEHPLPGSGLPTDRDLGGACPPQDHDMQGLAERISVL

ULK1 = biological target: T3, ULK1 (Homo sapiens, UniProt O75385)
T3 sequence (O75385 1-1050): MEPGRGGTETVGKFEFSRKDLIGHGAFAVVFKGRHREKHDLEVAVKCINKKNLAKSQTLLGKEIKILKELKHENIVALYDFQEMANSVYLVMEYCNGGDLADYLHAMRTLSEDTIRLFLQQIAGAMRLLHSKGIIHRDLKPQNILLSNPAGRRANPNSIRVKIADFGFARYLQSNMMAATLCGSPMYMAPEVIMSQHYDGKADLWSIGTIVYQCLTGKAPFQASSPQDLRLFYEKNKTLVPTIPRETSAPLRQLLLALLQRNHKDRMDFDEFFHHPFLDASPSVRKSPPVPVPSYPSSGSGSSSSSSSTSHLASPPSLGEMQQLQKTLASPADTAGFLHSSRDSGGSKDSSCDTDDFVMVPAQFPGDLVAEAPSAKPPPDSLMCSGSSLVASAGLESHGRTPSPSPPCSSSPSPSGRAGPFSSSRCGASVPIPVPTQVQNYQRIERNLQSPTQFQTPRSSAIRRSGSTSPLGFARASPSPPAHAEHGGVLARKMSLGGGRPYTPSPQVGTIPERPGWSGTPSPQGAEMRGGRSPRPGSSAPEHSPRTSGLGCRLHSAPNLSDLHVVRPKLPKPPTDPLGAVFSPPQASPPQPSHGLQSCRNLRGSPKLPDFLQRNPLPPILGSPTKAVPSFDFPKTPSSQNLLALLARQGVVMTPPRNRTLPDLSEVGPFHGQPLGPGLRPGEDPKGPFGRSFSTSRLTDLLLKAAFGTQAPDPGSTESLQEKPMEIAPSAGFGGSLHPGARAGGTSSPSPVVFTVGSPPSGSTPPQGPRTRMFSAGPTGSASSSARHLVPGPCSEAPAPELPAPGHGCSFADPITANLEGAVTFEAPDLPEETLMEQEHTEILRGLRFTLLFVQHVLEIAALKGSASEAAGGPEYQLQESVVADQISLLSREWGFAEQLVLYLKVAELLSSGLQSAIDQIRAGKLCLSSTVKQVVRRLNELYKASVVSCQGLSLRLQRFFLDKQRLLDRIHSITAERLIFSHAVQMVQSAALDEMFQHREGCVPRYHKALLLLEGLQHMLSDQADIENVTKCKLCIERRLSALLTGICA

[1] = read-out: Olaparib / %Ctrl @ 10000nM
[2] = read-out: Talazoparib (BMN 673) / %Ctrl @ 10000nM
[3] = read-out: Rucaparib / %Ctrl @ 10000nM, binding competition, % of control
[4] = read-out: Niraparib (MK-4827) / %Ctrl @ 10000nM

FGR, sequence (P09769 whole entry): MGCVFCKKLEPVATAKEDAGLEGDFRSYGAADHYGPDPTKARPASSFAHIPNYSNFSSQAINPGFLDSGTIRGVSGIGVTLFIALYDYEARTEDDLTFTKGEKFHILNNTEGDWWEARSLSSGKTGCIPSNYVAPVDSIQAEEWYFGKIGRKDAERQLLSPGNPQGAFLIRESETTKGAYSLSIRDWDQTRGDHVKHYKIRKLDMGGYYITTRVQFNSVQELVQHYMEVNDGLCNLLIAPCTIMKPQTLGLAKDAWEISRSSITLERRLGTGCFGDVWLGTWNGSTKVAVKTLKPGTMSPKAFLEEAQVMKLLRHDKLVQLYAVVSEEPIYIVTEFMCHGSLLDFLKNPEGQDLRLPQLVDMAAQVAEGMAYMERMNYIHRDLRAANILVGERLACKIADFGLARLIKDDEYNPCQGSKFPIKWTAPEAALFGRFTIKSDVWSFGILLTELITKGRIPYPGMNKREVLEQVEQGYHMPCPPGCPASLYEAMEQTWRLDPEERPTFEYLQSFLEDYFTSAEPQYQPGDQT

percent of control binding at 10 µM (DRAK2; [1]): 69%
percent of control binding at 10 µM (FGR; [1]): 92%
percent of control binding at 10 µM (PRKD2; [1]): 95%
percent of control binding at 10 µM (ULK1; [1]): 83%
Compound: O=C(c1cc(Cc2n[nH]c(=O)c3ccccc23)ccc1F)N1CCN(C(=O)C2CC2)CC1 [Olaparib]

percent of control binding at 10 µM (DRAK2; [2]): 100%
percent of control binding at 10 µM (FGR; [2]): 99%
percent of control binding at 10 µM (PRKD2; [2]): 100%
percent of control binding at 10 µM (ULK1; [2]): 94%
Compound: Cn1ncnc1[C@H]1c2n[nH]c(=O)c3cc(F)cc(c23)N[C@@H]1c1ccc(F)cc1 [Talazoparib]

percent of control binding at 10 µM (DRAK2; [3]): 98%
percent of control binding at 10 µM (FGR; [3]): 96%
percent of control binding at 10 µM (PRKD2; [3]): 77%
percent of control binding at 10 µM (ULK1; [3]): 64%
Compound: CNCc1ccc(-c2[nH]c3cc(F)cc4c3c2CCNC4=O)cc1 [Rucaparib]

Compound: NC(=O)c1cccc2cn(-c3ccc([C@@H]4CCCNC4)cc3)nc12 [Niraparib]
percent of control binding at 10 µM (DRAK2; [4]): 82%
percent of control binding at 10 µM (FGR; [4]): 85%
percent of control binding at 10 µM (PRKD2; [4]): 87%
percent of control binding at 10 µM (ULK1; [4]): 100%
